Source: US11504382B2, “Tricyclic inhibitors of Hepatitis B virus” (Antios Therapeutics, Inc., priority 2018, dated 2022)

Key:
HBV [1] = conditions: Phase 1b proof-of-concept clinical studies; cited from earlier work
HBV [2] = assay: HBV inhibition assay in HepAD38 cells (extracellular HBV DNA by direct qPCR); assay type: cell-based, Hepatitis B virus; conditions: 0.1 μM, 96 hours, relative to non-treated reference

Compound | reduction in HBV DNA and serum HBV RNA (HBV [1]) | Anti HBV Activity (conc μM) (HBV [2])
O=C(Nc1cc(F)c(F)c(F)c1)c1ccc(F)c(S(=O)(=O)N2CCC(O)CC2)c1 [NVR3-778] | significant reduction in HBV DNA and serum HBV RNA | –
tert-butyl 7-methyl-8-((3,4,5-trifluorophenyl)carbamoyl)-3a,4,10,10a-tetrahydro-1H,7H-dipyrrolo[3,4-b:3′,4′-f][1,4,5]oxathiazocine-2(3H)-carboxylate 5,5-dioxide (3aR,10aR) [Example E33] | – | B (0.1) (HBV inhibition less than 50% at the concentration indicated in the table)
